Data set [1] deals with U87 cells infected with Ad.Egr-TNF. The experiment in a line: TNFα induction in vitro (Quantikine ELISA of conditioned media). The format is cell-based, human. How it is done: 10^6 U87 cells were plated and incubated overnight. The cells were then infected with Ad.Egr-TNF at a multiplicity of infection (MOI) of 100 for 3 h at 37° C. After incubation, 3.8 mL of complete media with or without TMZ was added. Conditioned media were harvested at 48 h after treatment and human TNFα production was quantified using a Quantikine ELISA kit (R&D System Inc., Minneapolis, Minn.).
On the technique in general: ELISA stands for enzyme-linked immunosorbent assay.

The subject of data set [2] is NF-κB in Seg-1 esophageal cancer cells. The experiment in a line: NF-κB-responsive luciferase reporter assay, Seg-1. The class given is cell-based, human. On the technique in general: A reporter such as luciferase makes a cellular process visible.
A further data set can be described thus: LD50 of IP TMZ. More on the design: species or system mice. The note with it: mouse, in vivo.
The next data set concerns NF-κB. Briefly: NF-κB nuclear translocation and DNA binding (nuclear extracts, EMSA). The class given is cell-based, human. How it is done: Confluent cultures of U87 cells were grown in complete medium and then left untreated or treated with 10 ng/mL TNFα for 20 m and 1 h+/−16 h pre-treatment with 100 μM TMZ (or 0.1% DMSO control vehicle). Cells were then washed with 10 mL ice-cold PBS, scraped from the dish, and pelleted by centrifugation at 1000 rpm for 5 m at 4° C. Cell pellets were resuspended in 400 μl of ice-cold buffer A (10 mM HEPES, pH 7.9; 10 mM KCl; 0.1 mM EDTA; 1 mM DTT; 0.5 mM phenylmethysulfonylfluoride [PMSF]; 1 μg/mL leupeptin; 5 μg/mL aprotinin) and allowed to swell on ice for 15 m. Following the addition of 25 μl of 10% NP-40, the suspension was vortexed for 10 s and centrifuged at 14,500 rpm for 1 m at 4° C. Nuclei were resuspended in 50 μl of ice-cold buffer B (20 mM HEPES, pH 7.9; […]; 1 mM EDTA; 1 mM DTT; 1 mM PMSF; 25% glycerol; 1 μg/mL leupeptin; 5 μg/mL aprotinin) and incubated on ice for 15 m. […] Protein concentrations for each sample were determined by the Bradford method (Bio-Rad, Richmond, Calif., USA) and were adjusted to 2 μg/μl by the addition of buffer B. […]
20 μg of whole U87 cell (or nuclear) lysate was subjected to sodium dodecyl sulfate (SDS)-polyacrylamide gel electrophoresis (PAGE). […] Immunoreactive bands were detected by SuperSignal enhanced chemiluminescence (ECL) (Pierce, Rockford, Ill., USA) and exposed to Kodak X-Omat film.
Background: In EMSA bound probe runs differently from free probe, usually more slowly.

As usually defined, the LD50 is the dose at which mortality reaches 50%. High values mean lower toxicity, low ones greater toxicity.

With `Cn1nnc2c(C(N)=O)ncn2c1=O` [TMZ, temozolomide], in data set [1], the “TNFα detection in vitro” value is reported as “TNFα was detected”. Also, the “increase in TNFα expression compared to cells infected with vector alone” value in data set [1] (U87 cells infected with Ad.Egr-TNF (MOI 100), 100 μM TMZ, 48 h) was found to be 2.3 fold. In addition, in data set [2], the “TNFα-induced NF-κB transcriptional activity” value was “activated”. This compound returned a median lethal dose (LD50) in the data set “LD50 of IP TMZ” of roughly 500 mg/kg. In the data set with NF-κB, the “TNFα-induced NF-κB DNA binding” value was “does not directly affect”. The “TNFα-induced NF-κB nuclear translocation” value in the data set on NF-κB (glioma cells) is reported as “inhibiting NF-κB nuclear translocation”.

Source of the values: US20110091375A1, “USE OF THE COMBINATION COMPRISING TEMOZOLOMIDE AND TNF-ALPHA FOR TREATING GLIOBLASTOMA” (THE UNIVERSITY OF CHICAGO, priority 2004, published 2011).
